{"source": "patent US9243281B2", "about": "“Neuroprotective chemicals and methods for identifying and using same” (Board of Regents of The University of Texas System, priority 2013, dated 2016)", "key": {"[1]": {"system": "hippocampal neurogenesis (Dentate Gyrus)", "assay": "in vivo neurogenesis assay (BrdU+ cells in dentate gyrus)", "design": "species or system mice", "settings": "living mice; vehicle (DMSO) 7.3", "procedure,_shortened": "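New hippocampal cells were tracked by daily BrdU injections and anti-BrdU staining of brain sections. Adult mice (two per pool of ten compounds) got week-long intracerebroventricular infusion by mini-pump, dosed for mid-nanomolar exposure.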"}, "[2]": {"system": "U2OS cells", "assay": "doxorubicin toxicity (dox:tox) protection assay, Cell Titer Glo cell survival", "format": "cell-based", "settings": "cultured U2OS cells", "source_text": "FIGS. 2A-2D. […] (FIG. 2A) Chemical structure of P7C3-S326. […] (FIG. 2C) Formulas used for calculating doxorubicin toxicity (dox:tox) protection activity. Protection activity is expressed by (Sinf−S0)/AC50 in the twelve-point dose response curve (DRC) corresponding to each compound, wherein both efficacy and potency of compounds were considered. Sinf represents the expected maximal protection. S0 is the baseline. […] In the photo-crosslinking assays, the p70 band intensity was quantified by Image J, and compared the sample of P7C3-S326 alone with that of P7C3-S326 plus competitor. Pearson correlation coefficient (r) and two tailed P value were determined by GraphPad Prism 6 and Spearman Rank Correlation (v1.0.1) software.\nFIG. 10. Twelve-point dose response curves (DRC) of all tested compounds in doxorubicin toxicity protection assay. […] Cell viability was determined by Cell Titer Glo assay kit.\nCell survival assay was performed in 96-well plates using CellTiter-Glo Luminescent Cell Viability Assay kit (Promega) that measures cellular ATP content. The CellTiter-Glo reagent was diluted by adding 2 volumes of PBS containing 1% Triton X-100. 50 μl of diluted reagent was directly added to 100 μl of cell culture medium per well. Plates were incubated at room temperature for 10 minutes. Luminescence was recorded by Tecan […]luor Plus reader (Tecan). Cell survival was presented as the percentage of viable cells compared with untreated control, and mean±SD was calculated from duplicates. The dox:tox assay of P7C3 analogs was carried out in the HTS Core (University of Texas Southwestern Medical Center) using the EnVison multimode plate reader (Perkin Elmer)."}}}
{"smiles": "COc1cccc(NCC(F)Cn2c3ccc(Br)cc3c3cc(Br)ccc32)c1", "note": "(centres unmarked) [S10]", "values": [{"measurement": "Neurogenesis # BrdU+ Cells (X10E06)/mm3 Dentate Gyrus", "setting": "[1]", "value": "19.0 (X10E06)/mm3"}, {"measurement": "protection from doxorubicin-mediated toxicity (dox:tox assay)", "setting": "[2]", "value": "protect cultured U2OS cells from doxorubicin-mediated toxicity"}]}
